Assay [1] concerns KRas-mediated phosphorylation of ERK in AsPC-1 cells. In words: Inhibition of KRas-mediated phosphorylation of ERK (Cisbio HTRF pERK), AsPC-1 cells. The settings on record: Homo sapiens, ASPC1, AsPC-1 cells; HTRF pERK. The class given is cell-based. A digest of the protocol:
(§1)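 A cell-based HTRF pERK assay: ten-point, threefold titrations beginning at 10 uM were applied for 3 hrs, with 0.2 uM Trametinib wells as the minimum control. Cells were lysed cold, and lysate was incubated with the antibody pair for 2 hrs before reading.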

Assay [2] relates to KRas-mediated phosphorylation of ERK in PSN1 cells. Nature of the assay: Inhibition of KRas-mediated phosphorylation of ERK (Cisbio HTRF pERK), PSN1 cells. The class given is cell-based. The settings on record: Homo sapiens. In short, it runs like this: (§2)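 Seeding density was 6,000 cells/well; medium RPMI, 10% FBS. Read-out by homogeneous time-resolved fluorescence (pERK) after 4 hours covered at room temperature.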

Assay [3] concerns KRas-mediated phosphorylation of ERK in HCT116 cells. In words: Inhibition of KRas-mediated phosphorylation of ERK (Cisbio HTRF pERK), HCT116 cells. The format is cell-based. The settings on record: Homo sapiens; for inhibition at 0.1 µM: HCT-116, 3 h, single point, 100 nM compound, 3 hrs; for IC50: HCT-116, HTRF pERK. A digest of the protocol:
(§3)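 Using 6,000 cells per well, compounds are applied for 3 hrs and cells then lysed at 4° C with shaking for 40 mins. Phospho-ERK is measured by HTRF after 2 hrs of lysate incubation with the d2/Cryptate antibody mixture.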

Assay [4] has as its system KRas-mediated phosphorylation of ERK in A549 cells. In words: Inhibition of KRas-mediated phosphorylation of ERK (Cisbio HTRF pERK), A549 cells. The class given is cell-based. The settings on record: Homo sapiens, HTRF pERK. In short, it runs like this:
as §3

The target of the next assay is T1, KRas^G12C (Homo sapiens, UniProt P01116, G12C).
T1 construct: Biotinylated KRas (corresponding to amino acids 1-169, produced at Accelegan Inc.); biotin (biotinylated); purchased Accelegan Inc
T1 sequence (P01116 1-169 isoform P01116-2 G12C): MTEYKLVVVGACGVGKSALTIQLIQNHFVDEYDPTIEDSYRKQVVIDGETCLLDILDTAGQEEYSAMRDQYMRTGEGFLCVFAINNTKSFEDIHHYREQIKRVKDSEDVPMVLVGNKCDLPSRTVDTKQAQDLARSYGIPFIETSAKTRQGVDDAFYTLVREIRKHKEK
In words: KRas binding assay (TR-FRET tracer displacement), KRas G12C. The settings on record: for inhibition at 0.01 µM: single point, 10 nM compound, TR-FRET; for IC50: TR-FRET tracer displacement, KRas G12C.

Assay [5] deals with KRas-mediated phosphorylation of ERK in H727 cells. In words: Inhibition of KRas-mediated phosphorylation of ERK (Cisbio HTRF pERK), H727 cells. The class given is cell-based. The settings on record: Homo sapiens, NCI-H727, H727 cells; HTRF pERK. In short, it runs like this:
as §1

Assay [6] has as its system KRas-mediated phosphorylation of ERK in H460 cells. In words: Inhibition of KRas-mediated phosphorylation of ERK (Cisbio HTRF pERK), H460 cells. The format is cell-based. The settings on record: Homo sapiens; for inhibition at 0.1 µM: NCI-H460, 3 h, single point, 100 nM compound, 3 hrs; for IC50: NCI-H460, HTRF pERK. In short, it runs like this:
as §1

The target of the next assay is T2, KRas^G12A (Homo sapiens, UniProt P01116, G12A).
T2 construct: Biotinylated KRas (corresponding to amino acids 1-169, produced at Accelegan Inc.); biotin (biotinylated); purchased Accelegan Inc
T2 sequence (P01116 1-169 isoform P01116-2 G12A): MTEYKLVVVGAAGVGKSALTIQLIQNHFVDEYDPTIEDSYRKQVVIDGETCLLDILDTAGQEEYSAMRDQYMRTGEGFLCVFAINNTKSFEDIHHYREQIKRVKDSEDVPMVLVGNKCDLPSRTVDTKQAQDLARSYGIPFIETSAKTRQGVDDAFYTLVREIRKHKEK
In words: KRas binding assay (TR-FRET tracer displacement), KRas G12A. The settings on record: for inhibition at 0.01 µM: single point, 10 nM compound, TR-FRET; for IC50: TR-FRET tracer displacement, KRas G12A.

A further assay has as its target T3, KRas^G12V (Homo sapiens, UniProt P01116, G12V).
T3 construct: Biotinylated KRas (corresponding to amino acids 1-169, produced at Accelegan Inc.); biotin (biotinylated); purchased Accelegan Inc
Nature of the assay: KRas binding assay (TR-FRET tracer displacement), KRas G12V.

The target of a further assay is T4, KRas^G13D (Homo sapiens, UniProt P01116, G13D).
T4 construct: Biotinylated KRas (corresponding to amino acids 1-169, produced at Accelegan Inc.); biotin (biotinylated); purchased Accelegan Inc
T4 sequence (P01116 1-169 isoform P01116-2 G13D): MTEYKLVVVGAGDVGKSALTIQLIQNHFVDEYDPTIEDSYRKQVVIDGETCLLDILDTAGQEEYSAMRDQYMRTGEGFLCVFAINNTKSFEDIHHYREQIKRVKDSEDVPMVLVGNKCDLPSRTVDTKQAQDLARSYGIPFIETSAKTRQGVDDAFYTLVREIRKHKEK
Nature of the assay: KRas binding assay (TR-FRET tracer displacement), KRas G13D. The settings on record: for inhibition at 0.01 µM: single point, 10 nM compound, TR-FRET; for IC50: TR-FRET tracer displacement, KRas G13D.

The target in a further assay is T5, KRas^G12R (Homo sapiens, UniProt P01116, G12R).
T5 construct: Biotinylated KRas (corresponding to amino acids 1-169, produced at Accelegan Inc.); biotin (biotinylated); purchased Accelegan Inc
T5 sequence (P01116 1-169 isoform P01116-2 G12R): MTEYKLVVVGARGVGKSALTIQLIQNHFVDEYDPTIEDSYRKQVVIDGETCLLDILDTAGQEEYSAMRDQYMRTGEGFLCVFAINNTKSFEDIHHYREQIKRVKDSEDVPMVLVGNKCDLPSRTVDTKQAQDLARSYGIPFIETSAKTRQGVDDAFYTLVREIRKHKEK
Nature of the assay: KRas binding assay (TR-FRET tracer displacement), KRas G12R.

The target in another assay is T6, KRas^Q61H (Homo sapiens, UniProt P01116, Q61H).
T6 construct: Biotinylated KRas (corresponding to amino acids 1-169, produced at Accelegan Inc.); biotin (biotinylated); purchased Accelegan Inc
T6 sequence (P01116 1-169 isoform P01116-2 Q61H): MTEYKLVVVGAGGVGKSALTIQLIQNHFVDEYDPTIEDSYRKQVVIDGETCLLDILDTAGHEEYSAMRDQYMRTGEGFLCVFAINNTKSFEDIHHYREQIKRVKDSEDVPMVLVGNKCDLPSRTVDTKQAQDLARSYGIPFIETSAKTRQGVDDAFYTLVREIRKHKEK
In words: KRas binding assay (TR-FRET tracer displacement), KRas Q61H. The settings on record: for inhibition at 0.01 µM: single point, 10 nM compound, TR-FRET; for IC50: TR-FRET tracer displacement, KRas Q61H.

The target of another assay is T7, KRas^WT (Homo sapiens, UniProt P01116).
T7 construct: Biotinylated KRas (corresponding to amino acids 1-169, produced at Accelegan Inc.); biotin (biotinylated); purchased Accelegan Inc
T7 sequence (P01116 1-169 isoform P01116-2): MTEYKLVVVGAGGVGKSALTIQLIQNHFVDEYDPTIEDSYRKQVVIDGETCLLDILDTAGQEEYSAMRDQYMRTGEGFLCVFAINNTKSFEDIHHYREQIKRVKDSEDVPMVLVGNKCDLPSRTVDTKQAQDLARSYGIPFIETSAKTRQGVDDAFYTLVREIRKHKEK
In words: KRas binding assay (TR-FRET tracer displacement), KRas WT. The settings on record: for inhibition at 0.01 µM: single point, 10 nM compound, TR-FRET; for IC50: TR-FRET tracer displacement, KRas WT.

A further assay concerns the target T8, KRas^G12S (Homo sapiens, UniProt P01116, G12S).
T8 construct: Biotinylated KRas (corresponding to amino acids 1-169, produced at Accelegan Inc.); biotin (biotinylated); purchased Accelegan Inc
In words: KRas binding assay (TR-FRET tracer displacement), KRas G12S. The settings on record: for inhibition at 0.01 µM: single point, 10 nM compound, TR-FRET; for IC50: TR-FRET tracer displacement, KRas G12S.

In assay [7] the test system is KRas-mediated phosphorylation of ERK in MKN1 cells. Nature of the assay: Inhibition of KRas-mediated phosphorylation of ERK (Cisbio HTRF pERK), MKN1 cells. The class given is cell-based. The settings on record: Homo sapiens, MKN-1. A digest of the protocol:
as §2

In another assay the target is T9, KRas^G12D (Homo sapiens, UniProt P01116, G12D).
T9 construct: Biotinylated KRas (corresponding to amino acids 1-169, produced at Accelegan Inc.); biotin (biotinylated); purchased Accelegan Inc
T9 sequence (P01116 1-169 isoform P01116-2 G12D): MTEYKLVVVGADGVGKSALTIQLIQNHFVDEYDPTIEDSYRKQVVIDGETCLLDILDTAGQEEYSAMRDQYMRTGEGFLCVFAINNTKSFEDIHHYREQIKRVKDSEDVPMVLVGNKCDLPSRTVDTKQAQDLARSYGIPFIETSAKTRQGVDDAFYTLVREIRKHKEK
Nature of the assay: KRas binding assay (TR-FRET tracer displacement), KRas G12D.

T3 sequence (P01116 1-169 isoform P01116-2 G12V): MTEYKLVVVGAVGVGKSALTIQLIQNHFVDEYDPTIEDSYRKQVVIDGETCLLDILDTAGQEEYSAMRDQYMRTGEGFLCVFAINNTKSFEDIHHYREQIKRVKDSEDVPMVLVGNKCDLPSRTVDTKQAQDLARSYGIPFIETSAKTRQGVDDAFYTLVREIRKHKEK
T8 sequence (P01116 1-169 isoform P01116-2 G12S): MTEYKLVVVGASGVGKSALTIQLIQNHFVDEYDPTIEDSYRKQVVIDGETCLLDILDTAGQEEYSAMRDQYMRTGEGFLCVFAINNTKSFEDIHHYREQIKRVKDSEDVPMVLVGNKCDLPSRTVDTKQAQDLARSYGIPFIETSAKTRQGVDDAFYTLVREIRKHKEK

In the case of `CCc1c(F)ccc2cc(O)cc(-c3ncc4c(N5CCOCC(C)(O)C5)nc(OCC56CCCN5[C@H](COC(=O)N(C)C)CC6)nc4c3F)c12` (stereo in doubt) [Example 710, ((3S,7aR)-7a-(((7-(8-ethyl-7-fluoro-3-hydroxynaphthalen-1-yl)-8-fluoro-4-(6-hydroxy-6-methyl-1,4-oxazepan-4-yl)pyrido[4,3-d]pyrimidin-2-yl)oxy)methyl)hexahydro-1H-pyrrolizin-3-yl)methyl dimethylcarbamate], the IC50 came to 22 nM in [1]; 2610 nM in assay [2]; 47 nM in assay [4]; 49 nM in assay [5]; 3 nM on KRas^G12V; 4 nM on KRas^G12R. In addition, the figures for the IC50 (in [7]; at KRas^G12D) were 25 nM and 2 nM, respectively. Also, the results for the inhibition at 0.1 µM in assay [3] and in assay [6] were 37% and 66%, respectively. Also, the inhibition at 0.01 µM at KRas^G12C came out at 88%; on KRas^G12A it was 74%; on KRas^G13D it was 86%; on KRas^Q61H it was 88%; at KRas^WT, 80%; on KRas^G12S, 83%.
Regarding `CCc1c(F)ccc2cc(O)cc(-c3ncc4c(N5CCCn6nncc6C5)nc(OC[C@@]56CCCN5C[C@H](F)C6)nc4c3F)c12` [Example 562, 4-(4-(7,8-dihydro-4H-[1,2,3]triazolo[1,5-a][1,4]diazepin-5(6H)-yl)-8-fluoro-2-(((2R,7aS)-2-fluorohexahydro-1H-pyrrolizin-7a-yl)methoxy)pyrido[4,3-d]pyrimidin-7-yl)-5-ethyl-6-fluoronaphthalen-2-ol], the IC50 in assay [1] is 76 nM; in assay [2], over 10000 nM; in assay [3] it was 1060 nM; in assay [4], 496 nM; in assay [5] it was 217 nM; in [6] it was 438 nM. For the same molecule, the IC50 on KRas^G12V was 3 nM; at KRas^G12R it was 3 nM; in [7] it was 35 nM; at KRas^G12D, under 2 nM. The inhibition at 0.01 µM at KRas^G12C is 76%; on KRas^G12A, 59%; on KRas^G13D it was 69%; at KRas^Q61H it was 67%; at KRas^WT, 62%; at KRas^G12S, 81%.
As for `CCc1c(F)ccc2cc(O)cc(-c3ncc4c(N5C[C@@H]6C[C@H](C5)[C@H](O)[C@@H]6O)nc(OC[C@@]56CCCN5C[C@H](F)C6)nc4c3F)c12` [Example 568, (1R,5S,6R,7S)-3-(7-(8-ethyl-7-fluoro-3-hydroxynaphthalen-1-yl)-8-fluoro-2-(((2R,7aS)-2-fluorohexahydro-1H-pyrrolizin-7a-yl)methoxy)pyrido[4,3-d]pyrimidin-4-yl)-3-azabicyclo[3.2.1]octane-6,7-diol], the IC50 came out at 62 nM in [1]; 1380 nM in assay [2]; 29 nM in assay [3]; 19 nM in assay [4]; 33 nM in [5]; 17 nM in [6]. Moreover, the IC50 at KRas^G12V was under 2 nM; at KRas^G12R, under 2 nM; in assay [7], 2 nM; at KRas^G12D, under 2 nM. Moreover, the inhibition at 0.01 µM on KRas^G12C was found to be 96%; at KRas^G12A, 94%; on KRas^G13D, 98%; at KRas^Q61H, 98%; at KRas^WT, 97%; on KRas^G12S, 98%.
On to `Oc1cc(Cl)c(C2CC2)c(-c2ncc3c(N4CCC[C@]5(C4)C[C@H](O)C5)nc(OCC45CCCN4CCC5)nc3c2F)c1` [Example 742, (2s,4r)-6-(7-(3-chloro-2-cyclopropyl-5-hydroxyphenyl)-8-fluoro-2-((tetrahydro-1H-pyrrolizin-7a(5H)-yl)methoxy)pyrido[4,3-d]pyrimidin-4-yl)-6-azaspiro[3.5]nonan-2-ol], for which the IC50 is 1600 nM in [1]; over 10000 nM in assay [2]; 1790 nM in [3]; 2610 nM in assay [4]; under 2 nM at KRas^G12C; 292 nM in assay [5]. In addition, the IC50 at KRas^G12A was under 2 nM; on KRas^G12V it was under 2 nM; at KRas^G13D, 3 nM; on KRas^G12R, under 2 nM; on KRas^Q61H, under 2 nM; at KRas^WT it was 3 nM. In addition, the IC50 at KRas^G12S was 2 nM; in assay [7] it was 624 nM; at KRas^G12D, under 2 nM.
As for `CN(C)C(=O)c1cc2n(n1)CCCN(c1nc(OC[C@@]34CCCN3C[C@H](F)C4)nc3c(F)c(-c4c5ccccc5cc5[nH]ncc45)ncc13)C2` [Example 761, 5-(7-(1H-benzo[f]indazol-4-yl)-8-fluoro-2-(((2R,7aS)-2-fluorohexahydro-1H-pyrrolizin-7a-yl)methoxy)pyrido[4,3-d]pyrimidin-4-yl)-N,N-dimethyl-5,6,7,8-tetrahydro-4H-pyrazolo[1,5-a][1,4]diazepine-2-carboxamide], the IC50 is 4320 nM in assay [1]; over 10000 nM in [2]; 41 nM on KRas^G12C; 1280 nM in [5]; 65 nM on KRas^G12A; 23 nM at KRas^G12V. The IC50 was 177 nM on KRas^G13D; 74 nM at KRas^G12R; 151 nM on KRas^Q61H; 106 nM at KRas^WT; 33 nM at KRas^G12S; over 10000 nM in assay [7]. Moreover, the IC50 on KRas^G12D stood at 8 nM. Also, the inhibition at 0.1 µM in assay [3] is -13%; in [6] it was 11%.
Turning to `CN(C)C(=O)c1cc2n(n1)CCCN(c1nc(OCC34CCCN3CCC4)nc3c(F)c(-c4c(C5CC5)c(Cl)cc5[nH]ncc45)ncc13)C2` [Example 881, 5-(7-(6-chloro-5-cyclopropyl-1H-indazol-4-yl)-8-fluoro-2-((tetrahydro-1H-pyrrolizin-7a(5H)-yl)methoxy)pyrido[4,3-d]pyrimidin-4-yl)-N,N-dimethyl-5,6,7,8-tetrahydro-4H-pyrazolo[1,5-a][1,4]diazepine-2-carboxamide], the IC50 in assay [1] was over 10000 nM; in [2], over 10000 nM; at KRas^G12C it was 7 nM; in assay [5], over 10000 nM; at KRas^G12A, 14 nM; on KRas^G12V, 4 nM. The IC50 was 25 nM at KRas^G13D; 11 nM on KRas^G12R; 22 nM at KRas^Q61H; 22 nM on KRas^WT; 7 nM on KRas^G12S; over 10000 nM in assay [7]. For the same molecule, the IC50 on KRas^G12D turned out to be 2 nM.

(Values after US20260015350A1, “AZAQUINAZOLINE PAN-KRAS INHIBITORS” (Mirati Therapeutics, Inc., priority 2022, published 2026).)
